Results as given in US7078385B2, “Methods of inhibiting angiogenesis with fragments and homologs of troponin subunit I” (Boston Life Sciences, Inc., priority 1996, dated 2006).
No end group written: not given here.

Assays:
[1] = tested on: bFGF-stimulated capillary EC; test: Inhibition of bFGF-stimulated capillary EC proliferation by fragments of troponin I (Example 13, Table 2); assay type: cell-based, bovine; conditions: for IC50: read-out: Approx. IC50
Description: On day one, 5,000 bovine capillary endothelial cells in DMEM/10% CS/1% GPS are plated onto each well of a 96-well pregelatinized tissue culture plate. On day two, the cell media is changed to DMEM, 2% CS, 1% GPS, 0.5% BSA (complete medium), supplemented with 10 μl of 1 mg/ml “cold” thymidine per 50 ml of medium. On day three, test samples in complete medium are added in duplicate. Additionally, […] (bFGF) is added to each well except for the appropriate controls, to a final concentration of 0.2 ng/well. On day four, 5 μl of 1:13 diluted ^3H-Thymidine stock is added to each well and the plate is incubated for 5–6 hours. Following incubation, the medium is aspirated, and the remainder is rinsed once with PBS, then twice for 5 minutes each with methanol followed by two rinses each for 10 minutes with 5% TCA. The cells are then rinsed with water three times, dried to the plate, and 100 μl of 0.3 N NaOH is added to each well. The contents of the well are then transferred to the scintillation counter vials and 3 mls of Ecolume added to each vial. Samples are then counted on the scintillation counter.
Recombinant peptides corresponding to fragments of rabbit (rb) TnI (SEQ ID NO:10) (FIG. 12) were tested for ability to inhibit bFGF-stimulated capillary EC as described above in Section 6, Examples 2 and 8. The rbTnI fragments (SEQ ID NOS:11–15) were prepared according to Jha et al., 1996, Biochemistry 35(34):11026–11035.

[2] = tested on: embryonic neovascularization of the chick chorioallantoic membrane; conditions: cited from earlier work; for Lowest reported dose effective as combination in the CAM assay: combined with hydrocortisone (60 μg)
[3] = tested on: bovine capillary endothelial cells (BCE), bFGF-stimulated; test: bFGF-stimulated capillary endothelial cell proliferation, colorimetric acid phosphatase assay (Example 3); assay type: cell-based
Description: A quick and sensitive screen for inhibition of EC proliferation in response to treatment with a troponin subunit, homolog, or derivative of the invention involves incubating the cells in the presence of varying concentrations of the inhibitor and determining the number of endothelial cells in culture based on the colorimetric determination of cellular acid phosphatase activity, described by Connolly, et al., 1986, J. Anal. Biochem. 152:136–140.
The effect of troponin on the proliferation of capillary endothelial cells (EC) was measured in an assay which measures the ability of this protein to interfere with stimulation of endothelial cell proliferation by a known angiogenesis factor (bFGF).
Capillary endothelial cells and Balb/c 3T3 cells were separately plated (2×10^3/0.2 ml) onto gelatin-coated 96-well tissue culture dishes on day 1. On day 2, cells were refed with Dulbecco's modified Eagle's medium (Gibco) with 5% calf serum (Hyclone) (DMEM/5) and bFGF (10 ng/ml) (FGF Co.) and increasing concentrations of one or more troponin subunits. […] Wells containing phosphate buffered saline (PBS) (Gibco) alone and PBS+bFGF were included as controls. On day 5, media was removed and cells were washed with PBS and lysed in 100 μl of buffer containing 0.1 M sodium acetate (pH 5.5), 0.1% Triton X-100™ and 100 mM p-nitrophenyl phosphate (Sigma 104 phosphatase substrate). After incubation for 2 hours at 37° C., the reaction was stopped with the addition of 10 μl of 1 N NAOH. Color development was determined at 405 nm using a rapid microplate reader (Bio-Tek).
Percent inhibition was determined by comparing the cell number of wells exposed to stimulus with those exposed to stimulus and troponin subunits.

122–181: recombinant rabbit TnI fragment, C′ region, aa 122–181 (LKALLGSKHKVCMDLRANLKQVKKEDTEKERDLRDVGDWRKNIEEKSGMEGRKKMFESES; listed as Oryctolagus cuniculus)
Approx. IC50 μg/well [1]: >0.3 μg/well | % I (Percent Inhibition) of EC proliferation ([1]; 0.01 μg/well): −1% | % I (Percent Inhibition) of EC proliferation ([1]; 0.025 μg/well): −6% | % I (Percent Inhibition) of EC proliferation ([1]; 0.1 μg/well): 20% | % I (Percent Inhibition) of EC proliferation ([1]; 0.3 μg/well): 23% | IC50 [1]: > 200 nM

B-cyclodextrin tetradecasulfate
Lowest reported dose effective as combination in the CAM assay [2]: 14 µg

CMDLRANL [134–141]
Approx. IC50 μg/well [1]: 150 μg/well

DAMLKALL [120–127]
Approx. IC50 μg/well [1]: >>50 μg/well

DLRANLKQ [136–143]
Approx. IC50 μg/well [1]: >>50 μg/well

DLRGKFKRPPLRRVRMSADA [102–121]
Approx. IC50 μg/well [1]: >>20 μg/well

EDMNQKLFDLRGKFKRPPLR [94–113]
Approx. IC50 μg/well [1]: >>20 μg/well

GSKHKVCM [128–135]
Approx. IC50 μg/well [1]: 150 μg/well

KALLGSKH [124–131]
Approx. IC50 μg/well [1]: >>50 μg/well

KFKRPPLRRVRMSADAMLKA [102–125]
Approx. IC50 μg/well [1]: >>20 μg/well

KHKVCMDL [130–137]
Approx. IC50 μg/well [1]: 50 μg/well

KLFDLRGKFKRPPLRRV [98–114]
Approx. IC50 μg/well [1]: >>40 μg/well

KVCMDLRA [132–139]
Approx. IC50 μg/well [1]: 75 μg/well

LLGSKHKV [126–133]
Approx. IC50 μg/well [1]: >>50 μg/well

MLKALLGS [122–129]
Approx. IC50 μg/well [1]: >>50 μg/well

PPLRRVRMSADAMLKALLGS [110–129]
Approx. IC50 μg/well [1]: >>20 μg/well

QKLFDLRGKFKRPPLRRVRM [98–117]
Approx. IC50 μg/well [1]: >>20 μg/well

RMSADAML [116–123]
Approx. IC50 μg/well [1]: >>50 μg/well

RVRMSADAMLKALLGSKHKV [114–133]
Approx. IC50 μg/well [1]: >>20 μg/well

SADAMLKA [118–125]
Approx. IC50 μg/well [1]: >>50 μg/well

SADAMLKALLGSKHKVCMDL [118–137]
Approx. IC50 μg/well [1]: 40 μg/well

Troponin C: troponin subunit C, calcium binding polypeptide of the troponin complex; human fast twitch sequence SEQ ID NO:1
IC50 [3]: 278 nM | Percent inhibition of BCE proliferation ([3]; 280 nM): 54% | Percent inhibition of BCE proliferation ([3]; 1.4 μM): 86% | Percent inhibition of BCE proliferation ([3]; 2.8 μM): 83% | Percent inhibition of BCE proliferation ([3]; 5.6 μM (20 μg/well)): 100%

Troponin T: troponin subunit T, tropomyosin binding polypeptide of the troponin complex; SEQ ID NO:3
IC50 [3]: 2140 nM | Percent inhibition of BCE proliferation ([3]; 1.6 μM): 23% | Percent inhibition of BCE proliferation ([3]; 3.3 μM): 62% | Inhibition of bFGF-stimulated EC proliferation (in words) ([3]; 1 and 5 μg/well): not

heparin
Lowest reported dose effective as combination in the CAM assay [2]: 50 µg

protamine
Reported dose of angiogenesis inhibitor tested alone in the CAM assay [2]: 50 µg

B1: Troponin I: troponin subunit I, inhibitory polypeptide of the troponin complex; human fast twitch sequence SEQ ID NO:2 (protein, listed as Homo sapiens)
chain: MGDEEKRNRAITARRQHLKSVMLQIAATELEKEESRREAEKQNYLAEHCPPLHIPGSMSEVQELCKQLHAKIDAAEEEKYDMEVRVQKTSKELEDMNQKLFDLRGKFKRPPLRRVRMSADAMLKALLGSKHKVCMDLRANLKQVKKEDTEKERDLRDVGDWRKNIEEKSGMEGRKKMFESES
IC50 [3]: 1140 nM | Percent inhibition of BCE proliferation ([3]; 240 nM): 33% | Percent inhibition of BCE proliferation ([3]; 1.2 μM (5 μg/well), 1.2 µM): 46% | Percent inhibition of BCE proliferation ([3]; 1.2 μM (5 μg/well), listed as full-length TnI, 1.2 µM): approximately 46% | Inhibition of bFGF-stimulated BCE proliferation (in words) ([3]; 10 μg/well): inhibition was not observed

B2: platelet factor IV: previously described angiogenesis inhibitor (Taylor et al. 1982) (protein, UniProt P02776 32-101, looked up)
Platelet factor 4: EAEEDGDLQCLCVKTTSQVRPRHITSLEVIKAGPHCPTAQLIATLKNGRKICLDLQAPLYKKIIKKLLES
Reported dose of angiogenesis inhibitor tested alone in the CAM assay [2]: 10 µg

B3: 96–181: recombinant rabbit TnI fragment, carboxy terminus (C′) and I′ region, aa 96–181 (protein, listed as Oryctolagus cuniculus)
chain: NQKLFDLRGKFKRPPLRRVRMSADAMLKALLGSKHKVCMDLRANLKQVKKEDTEKERDLRDVGDWRKNIEEKSGMEGRKKMFESES
% I (Percent Inhibition) of EC proliferation ([1]; 0.01 μg/well): 25% | % I (Percent Inhibition) of EC proliferation ([1]; 0.025 μg/well): 28% | % I (Percent Inhibition) of EC proliferation ([1]; 0.1 μg/well): 54% | % I (Percent Inhibition) of EC proliferation ([1]; 0.3 μg/well): 48%

B4: 1–94: recombinant rabbit TnI fragment, amino-terminal (N′) region, aa 1–94 (protein, listed as Oryctolagus cuniculus)
chain: GDEEKRNRAITARRQHLKSVMLQIAATELEKEEGRREAEKQNYLAEHCPPLSLPGSMAEVQELCKQLHAKIDAAEEEKYDMEIKVQKSSKELED
Approx. IC50 μg/well [1]: >0.3 μg/well | % I (Percent Inhibition) of EC proliferation ([1]; 0.01 μg/well): −12% | % I (Percent Inhibition) of EC proliferation ([1]; 0.025 μg/well): 6% | % I (Percent Inhibition) of EC proliferation ([1]; 0.1 μg/well): 31% | % I (Percent Inhibition) of EC proliferation ([1]; 0.3 μg/well): 28% | IC50 [1]: > 100 nM

B5: 1–120: recombinant rabbit TnI fragment, N′ and inhibitory (I′) region, aa 1–120 (protein, listed as Oryctolagus cuniculus)
chain: GDEEKRNRAITARRQHLKSVMLQIAATELEKEEGRREAEKQNYLAEHCPPLSLPGSMAEVQELCKQLHAKIDAAEEEKYDMEIKVQKSSKELEDMNQKLFDLRGKFKRPPLRRVRMSADA
Approx. IC50 μg/well [1]: >>0.3 μg/well | % I (Percent Inhibition) of EC proliferation ([1]; 0.01 μg/well): 6% | % I (Percent Inhibition) of EC proliferation ([1]; 0.025 μg/well): 0% | % I (Percent Inhibition) of EC proliferation ([1]; 0.1 μg/well): 12% | % I (Percent Inhibition) of EC proliferation ([1]; 0.3 μg/well): 17% | IC50 [1]: > 100 nM
